The values below come from ChEMBL document CHEMBL1201862, “PubChem BioAssay data set” (2004).

Calls of active or inactive are those of the source.

The subject of one assay is HEK293. As to the kind of experiment: inhibitors of LMP1-driven NF-kB reporter, dose response, cell-based, HEK293, luciferase, cherry-pick (AID 588343). Conditions: Homo sapiens. Format: functional.
The target of assay [1] is T1, RNA-binding protein pos-1 (Caenorhabditis elegans, UniProt G5EF15).
T1 sequence (G5EF15 whole entry): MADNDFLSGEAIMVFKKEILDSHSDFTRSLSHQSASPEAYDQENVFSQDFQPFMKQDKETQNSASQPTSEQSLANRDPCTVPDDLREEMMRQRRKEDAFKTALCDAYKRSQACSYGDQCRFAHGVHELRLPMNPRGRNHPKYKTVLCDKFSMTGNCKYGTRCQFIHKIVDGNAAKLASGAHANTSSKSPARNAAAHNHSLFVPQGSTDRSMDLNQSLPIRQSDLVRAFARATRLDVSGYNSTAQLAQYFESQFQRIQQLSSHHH
As to the kind of experiment: inhibitors of POS-1/mex-3 RNA binding, dose response, biochemical, fluorescence polarization (AID 1964).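 Note: purified POS-1 fused to maltose binding protein made in E. coli; potency of compounds blocking POS-1 binding to fluorescent RNA.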

Assay [2] has as its target T2, Zinc finger protein mex-5 (Caenorhabditis elegans, UniProt Q9XUB2).
T2 sequence (Q9XUB2 whole entry): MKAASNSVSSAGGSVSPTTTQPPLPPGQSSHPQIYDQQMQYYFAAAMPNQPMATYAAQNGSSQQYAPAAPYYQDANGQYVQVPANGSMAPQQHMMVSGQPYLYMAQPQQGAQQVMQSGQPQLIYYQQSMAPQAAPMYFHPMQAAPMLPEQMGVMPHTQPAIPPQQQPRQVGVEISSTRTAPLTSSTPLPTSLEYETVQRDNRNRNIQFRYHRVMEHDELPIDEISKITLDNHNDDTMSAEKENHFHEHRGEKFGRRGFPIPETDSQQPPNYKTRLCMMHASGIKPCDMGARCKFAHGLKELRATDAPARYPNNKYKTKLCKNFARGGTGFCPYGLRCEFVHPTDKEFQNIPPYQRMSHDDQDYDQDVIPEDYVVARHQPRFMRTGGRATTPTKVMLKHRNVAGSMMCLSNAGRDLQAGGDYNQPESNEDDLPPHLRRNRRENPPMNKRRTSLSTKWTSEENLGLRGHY
As to the kind of experiment: MEX-5/TCR-2 RNA interaction inhibitors, dose response, biochemical, C. elegans, fluorescence polarization (AID 1960).

The target in assay [3] is T3, Carboxy-terminal domain RNA polymerase II polypeptide A small phosphatase 1 (Homo sapiens, UniProt Q9GZU7).
T3 sequence (Q9GZU7 whole entry): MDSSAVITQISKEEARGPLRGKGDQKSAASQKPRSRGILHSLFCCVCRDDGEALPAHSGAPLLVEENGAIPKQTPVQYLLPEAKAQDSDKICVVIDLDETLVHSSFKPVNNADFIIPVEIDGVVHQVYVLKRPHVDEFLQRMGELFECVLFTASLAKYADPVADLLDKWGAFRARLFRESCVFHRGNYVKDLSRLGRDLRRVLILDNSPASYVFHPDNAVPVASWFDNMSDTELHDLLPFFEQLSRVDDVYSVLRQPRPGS
As to the kind of experiment: inhibitors of CTDSP1, concentration-response testing, biochemical assay, absorbance-based, actives from ultra-high-throughput screening (AID 540297). It is filed as functional.

Assay [4] addresses T4, Histone-lysine N-methyltransferase NSD2 (Homo sapiens, UniProt O96028).
T4 sequence (O96028 whole entry): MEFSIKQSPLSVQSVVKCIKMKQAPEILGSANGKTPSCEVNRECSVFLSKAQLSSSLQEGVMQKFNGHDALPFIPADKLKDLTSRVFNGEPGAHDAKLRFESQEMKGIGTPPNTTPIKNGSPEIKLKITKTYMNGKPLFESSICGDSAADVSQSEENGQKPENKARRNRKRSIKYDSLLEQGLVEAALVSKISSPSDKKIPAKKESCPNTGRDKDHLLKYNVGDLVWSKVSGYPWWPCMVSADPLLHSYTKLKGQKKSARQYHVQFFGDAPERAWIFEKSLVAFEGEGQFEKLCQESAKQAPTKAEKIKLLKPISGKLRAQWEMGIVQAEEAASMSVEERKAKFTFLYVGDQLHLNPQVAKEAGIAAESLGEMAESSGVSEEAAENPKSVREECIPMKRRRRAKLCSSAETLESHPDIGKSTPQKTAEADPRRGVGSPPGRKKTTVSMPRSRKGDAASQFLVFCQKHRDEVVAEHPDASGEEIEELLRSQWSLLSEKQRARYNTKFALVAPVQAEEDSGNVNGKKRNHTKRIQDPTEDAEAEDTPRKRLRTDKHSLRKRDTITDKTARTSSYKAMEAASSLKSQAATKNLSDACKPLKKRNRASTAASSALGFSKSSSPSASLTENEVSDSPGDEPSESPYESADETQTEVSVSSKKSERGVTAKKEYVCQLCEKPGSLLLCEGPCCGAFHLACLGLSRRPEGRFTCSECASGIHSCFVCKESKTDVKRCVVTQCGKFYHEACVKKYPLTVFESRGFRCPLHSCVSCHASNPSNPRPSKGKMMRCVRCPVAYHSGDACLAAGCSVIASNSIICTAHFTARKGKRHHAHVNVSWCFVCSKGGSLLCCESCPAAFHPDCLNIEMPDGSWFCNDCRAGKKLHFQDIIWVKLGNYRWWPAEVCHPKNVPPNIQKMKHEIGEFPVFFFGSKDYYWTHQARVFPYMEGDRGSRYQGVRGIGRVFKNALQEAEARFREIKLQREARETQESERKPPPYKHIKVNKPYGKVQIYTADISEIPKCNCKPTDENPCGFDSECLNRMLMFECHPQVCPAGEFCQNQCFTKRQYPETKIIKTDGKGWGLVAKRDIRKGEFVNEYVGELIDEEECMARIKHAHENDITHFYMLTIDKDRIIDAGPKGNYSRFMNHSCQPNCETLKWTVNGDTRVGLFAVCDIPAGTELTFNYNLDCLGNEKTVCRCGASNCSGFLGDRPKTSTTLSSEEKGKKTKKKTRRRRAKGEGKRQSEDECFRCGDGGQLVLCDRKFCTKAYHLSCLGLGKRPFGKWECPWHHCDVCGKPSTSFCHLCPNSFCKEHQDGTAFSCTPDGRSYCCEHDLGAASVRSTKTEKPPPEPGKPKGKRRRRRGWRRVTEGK
Format: biochemical.

The subject of a further assay is Escherichia coli. The assay can be described thus: microbe, parasite or virus in culture.
Assay [5] concerns the target T5, Neuropeptide Y receptor type 1 (Homo sapiens, UniProt P25929).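 Note: HEK293 cells with a CNG channel challenged with NPY then isoproterenol; potency as antagonist that reverses NPY suppression of cAMP signal.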
T5 sequence (P25929 whole entry): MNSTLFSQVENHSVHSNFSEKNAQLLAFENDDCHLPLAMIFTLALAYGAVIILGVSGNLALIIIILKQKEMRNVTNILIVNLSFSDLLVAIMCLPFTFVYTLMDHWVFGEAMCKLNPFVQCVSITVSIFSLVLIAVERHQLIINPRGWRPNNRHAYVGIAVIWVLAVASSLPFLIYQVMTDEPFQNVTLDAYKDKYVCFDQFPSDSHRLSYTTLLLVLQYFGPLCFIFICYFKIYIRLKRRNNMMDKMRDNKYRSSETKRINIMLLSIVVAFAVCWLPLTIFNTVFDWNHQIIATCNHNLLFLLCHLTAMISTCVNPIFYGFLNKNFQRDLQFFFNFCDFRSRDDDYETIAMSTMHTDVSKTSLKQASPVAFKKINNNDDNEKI
It is filed as functional.

Assay [6] has as its target T6, Neuropeptide Y receptor type 2 (Homo sapiens, UniProt P49146).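 Note: HEK293 cells expressing the receptor and a CNG channel; stimulus was NPY near EC95 followed by isoproterenol to raise cAMP; antagonist potency measured as restoring cAMP signal that NPY suppresses.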
T6 sequence (P49146 whole entry): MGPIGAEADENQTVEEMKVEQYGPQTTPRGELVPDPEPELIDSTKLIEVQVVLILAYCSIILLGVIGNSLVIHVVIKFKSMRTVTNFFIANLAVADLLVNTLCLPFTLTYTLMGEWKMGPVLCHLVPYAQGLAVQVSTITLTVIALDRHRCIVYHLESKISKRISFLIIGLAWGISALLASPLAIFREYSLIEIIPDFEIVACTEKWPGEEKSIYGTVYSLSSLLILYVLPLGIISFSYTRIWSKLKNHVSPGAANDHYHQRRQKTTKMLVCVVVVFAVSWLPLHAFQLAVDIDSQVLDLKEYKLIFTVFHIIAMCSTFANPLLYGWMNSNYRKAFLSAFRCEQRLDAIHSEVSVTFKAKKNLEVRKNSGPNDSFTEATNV
Format: functional, cell-based.

The target of another assay is T7, Cysteine protease ATG4B (Homo sapiens, UniProt Q9Y4P1).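 Note: Fluorescence-based dose-response confirmation assay measuring inhibition of ATG4B activity.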
T7 sequence (Q9Y4P1 whole entry): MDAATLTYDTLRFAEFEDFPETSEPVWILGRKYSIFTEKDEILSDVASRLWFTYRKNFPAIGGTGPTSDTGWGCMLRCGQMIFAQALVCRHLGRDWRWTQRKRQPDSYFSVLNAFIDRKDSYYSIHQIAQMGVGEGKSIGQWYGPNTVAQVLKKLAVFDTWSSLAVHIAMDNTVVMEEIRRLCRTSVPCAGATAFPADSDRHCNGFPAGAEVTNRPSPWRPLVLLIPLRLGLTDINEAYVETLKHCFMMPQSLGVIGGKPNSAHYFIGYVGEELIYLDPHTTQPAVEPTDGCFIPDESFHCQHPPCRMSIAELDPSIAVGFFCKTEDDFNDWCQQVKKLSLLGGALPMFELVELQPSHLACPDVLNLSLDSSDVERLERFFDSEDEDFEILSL
It is filed as functional.

Another assay addresses Phospholipase A2 (Homo sapiens, UniProt P04054). It is filed as functional.
Assay [7] addresses T8, Endoribonuclease toxin MazF (Escherichia coli K-12, UniProt P0AE70).
T8 sequence (P0AE70 whole entry): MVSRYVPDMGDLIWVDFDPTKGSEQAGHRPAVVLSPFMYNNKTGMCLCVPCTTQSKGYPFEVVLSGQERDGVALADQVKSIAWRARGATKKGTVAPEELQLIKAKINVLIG
As to the kind of experiment: MazF toxin RNase activators, dose response, biochemical, fluorescence, single-stranded RNA substrate, uHTS hits (AID 588481). It is filed as functional.

The target of assay [8] is T8, Endoribonuclease toxin MazF. The assay can be described thus: fluorescent RNA oligo signal without MazF, dose response, counter-screen for MazEF activator project, biochemical, fluorescence, single-stranded RNase substrate (AID 588502). It is filed as functional.
In assay [9] the target is T9, Mitochondrial peptide methionine sulfoxide reductase (Bos taurus, UniProt P54149).
T9 sequence (P54149 whole entry): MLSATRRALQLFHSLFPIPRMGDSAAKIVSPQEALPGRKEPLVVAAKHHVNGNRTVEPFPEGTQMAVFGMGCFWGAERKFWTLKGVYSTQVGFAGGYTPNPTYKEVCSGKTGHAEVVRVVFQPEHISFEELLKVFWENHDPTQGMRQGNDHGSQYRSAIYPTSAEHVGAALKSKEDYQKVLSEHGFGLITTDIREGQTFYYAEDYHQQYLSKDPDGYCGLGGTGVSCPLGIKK
As to the kind of experiment: Absorbance-based biochemical high throughput dose response assay for activators of Methionine sulfoxide reductase A (MsrA). Format: functional.

For assay [10], the target named is DNA dC->dU-editing enzyme APOBEC-3A (Homo sapiens, UniProt P31941). The assay can be described thus: SAR analysis of small molecule inhibitors of APOBEC3A DNA Deaminase via a fluorescence-based single-stranded DNA deaminase assay - Set 2. It is filed as functional. Conditions: read-out: IC50_Mean.
The target of assay [11] is DNA dC->dU-editing enzyme APOBEC-3G (Homo sapiens, UniProt Q9HC16). The assay can be described thus: SAR analysis of small molecule inhibitors of APOBEC3G DNA Deaminase via a fluorescence-based single-stranded DNA deaminase assay - Set 2. Conditions: read-out: IC50_Mean. It is filed as functional.
For another assay, the system named is P388/ADR. As to the kind of experiment: cells. Conditions: Mus musculus. Format: functional.
In a further assay the test system is SN12K1. As to the kind of experiment: cells. Conditions: Homo sapiens. Format: functional.
A further assay deals with P388. As to the kind of experiment: cells. Format: functional. Conditions: Mus musculus.

Sequence of Phospholipase A2 (P04054 whole entry): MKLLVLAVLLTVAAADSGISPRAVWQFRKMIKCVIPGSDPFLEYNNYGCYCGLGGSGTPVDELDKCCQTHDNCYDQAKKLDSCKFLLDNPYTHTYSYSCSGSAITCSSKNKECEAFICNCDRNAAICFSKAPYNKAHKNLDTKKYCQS
Sequence of DNA dC->dU-editing enzyme APOBEC-3G (Q9HC16 whole entry): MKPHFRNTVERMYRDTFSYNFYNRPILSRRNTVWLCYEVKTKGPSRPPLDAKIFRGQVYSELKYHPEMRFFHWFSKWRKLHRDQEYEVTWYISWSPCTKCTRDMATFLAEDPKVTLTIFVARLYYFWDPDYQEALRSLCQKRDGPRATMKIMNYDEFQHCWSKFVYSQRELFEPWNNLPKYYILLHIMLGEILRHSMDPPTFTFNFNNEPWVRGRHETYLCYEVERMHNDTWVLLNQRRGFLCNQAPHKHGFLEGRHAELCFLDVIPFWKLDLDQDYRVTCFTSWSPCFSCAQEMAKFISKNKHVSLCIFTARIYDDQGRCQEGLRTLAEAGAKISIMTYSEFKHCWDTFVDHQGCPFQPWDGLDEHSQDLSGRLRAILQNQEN
Sequence of DNA dC->dU-editing enzyme APOBEC-3A (P31941 whole entry): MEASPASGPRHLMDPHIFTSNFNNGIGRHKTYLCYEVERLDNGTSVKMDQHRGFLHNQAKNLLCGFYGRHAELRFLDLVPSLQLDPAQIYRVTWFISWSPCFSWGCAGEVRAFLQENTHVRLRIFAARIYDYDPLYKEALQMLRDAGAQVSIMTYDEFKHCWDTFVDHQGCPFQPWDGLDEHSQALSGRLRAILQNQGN

Consider `COc1ccc(-n2c(C)c([N+](=O)[O-])c3ccc(O)c(CN(C)C)c32)cc1`, for which, in the assay with HEK293, the AC50 is 2.53 µM (active).
Consider `CCOc1cccc(=O)c2c(C)n(-c3ccc(C(=O)O)cc3)c(C)c12`, for which the EC50 in [1] was 41.3 µM (active); in assay [2], 29.6 µM (active). Besides, the IC50 in [3] was 4.54 µM (active). Besides, the values for the AC50 (in assay [4]; in the assay on Escherichia coli) were 17.2 µM (active) and > 150 µM (inactive), respectively.
Turning to `CC(Sc1ccc(Cl)cc1)C(=O)Nc1ccccc1-c1ccccc1` (centres undefined), the IC50 was 10.3 µM (not active) in assay [5], 4.77 µM (active) in assay [6], 49.7 µM (inactive) on Cysteine protease ATG4B and 4.74 µM (active) at Phospholipase A2.
With `COc1cc(OC)cc(-c2nc3ccccc3c(=O)n2OC(=O)c2ccccc2C)c1`, the IC50 is 21.4 µM (inactive) at Cysteine protease ATG4B and 7.51 µM (active) on Phospholipase A2.
Regarding `CCSc1nnc(N2C(=O)C(O)=C(C(=O)c3ccco3)C2c2cccc(OC)c2)s1` (centres undefined), the EC50 in assay [7] and in assay [8] was > 99 µM (inactive) throughout.
Turning to `NC(=S)NN=C1CSSC1`, the EC50 in [9] is 12.9 µM (inactive).
Regarding `CN(Cc1ccccc1)C(=O)c1cc2ncc(Br)cn2n1`, the IC50 in [10] was 34.5 µM (inactive); in assay [11], 77.8 µM (inactive).
Take `CN1c2c(O)nc(N)nc2NCC1CCNc1ccc(C(=O)NC(CCC(=O)O)C(=O)O)cc1` (centres undefined): the GI50 in the assay with P388/ADR is 2.49 µM (inactive); in the assay with SN12K1, 5.5 µM (inactive); in the assay on P388 it was 4.5 µM (inactive).
For `CCCCCCNC(=O)C(C)C1CCC2(C)C=CC(=O)C(C)=C2C1O` (centres undefined), in that order: > 42.3 µM (inactive), > 100 µM (inactive) and 62.5 µM (inactive).
On to `O=C(NCc1ccccc1)c1cccc(COc2ccc3c(c2)CCC3)c1`, for which the AC50 with HEK293 was 4.83 µM (active).
In the case of `N=c1c[n+](N2CCOCC2)[n-]o1`, the EC50 in [7] is 30.3 µM (inactive); in assay [8], > 99 µM (inactive).
For `COc1cc([C@@H]2c3cc4c(cc3C[C@H]3COC(=O)[C@@H]32)OCO4)cc(OC)c1OC` [DESOXYPODOPHYLLOTOXIN], the GI50 in the assay with P388/ADR was 0.0108 µM (active); in the assay on SN12K1, 0.00596 µM (active); in the assay on P388, 0.005 µM (active).
